What was measured:
recombinant DMP1 [1] = molecular target: T1, recombinant DMP1 (Mus musculus, UniProt Q8CE22); experiment: EMSA competition with Sf9 lysates producing recombinant DMP1; type: binding; details: excess unlabeled oligonucleotide
T1 construct: made in house; host or cells: Sf9 insect cells, pAcYM1 baculovirus vector; used as crude lysate (~4 ng DMP1 per reaction)
T1 sequence (Q8CE22 1-761): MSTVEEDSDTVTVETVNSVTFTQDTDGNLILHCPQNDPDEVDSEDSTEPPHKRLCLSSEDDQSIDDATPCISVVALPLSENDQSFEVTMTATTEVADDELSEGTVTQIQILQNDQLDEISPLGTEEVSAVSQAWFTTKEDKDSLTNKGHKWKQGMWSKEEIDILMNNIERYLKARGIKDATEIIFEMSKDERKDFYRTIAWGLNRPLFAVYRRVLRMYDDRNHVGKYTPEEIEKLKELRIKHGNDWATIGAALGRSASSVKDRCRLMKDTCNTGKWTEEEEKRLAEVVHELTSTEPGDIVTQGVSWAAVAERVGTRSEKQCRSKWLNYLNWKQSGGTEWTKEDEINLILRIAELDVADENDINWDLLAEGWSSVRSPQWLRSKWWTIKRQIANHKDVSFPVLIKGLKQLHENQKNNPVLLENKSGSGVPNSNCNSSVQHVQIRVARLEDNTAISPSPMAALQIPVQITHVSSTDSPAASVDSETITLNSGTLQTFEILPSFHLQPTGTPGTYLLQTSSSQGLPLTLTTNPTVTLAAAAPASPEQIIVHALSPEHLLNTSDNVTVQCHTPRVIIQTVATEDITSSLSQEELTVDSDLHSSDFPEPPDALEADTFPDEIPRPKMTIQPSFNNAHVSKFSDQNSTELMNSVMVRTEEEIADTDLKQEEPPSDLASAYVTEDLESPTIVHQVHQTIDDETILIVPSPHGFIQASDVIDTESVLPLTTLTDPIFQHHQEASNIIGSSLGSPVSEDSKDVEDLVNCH
Procedure: (§1) Double-stranded oligonucleotides containing potential DMP1 binding sites (BS1 and BS2) and mutated versions (M1-M4) (FIG. 5B) are end-labeled with ^32P using the Klenow fragment of DNA polymerase and α-^32P-dATP (6000 Ci/mmol; Dupont NEN) (8). Nuclear extracts from mouse NIH-3T3 or CTLL cells are prepared with buffer containing 0.4 M NaCl (2). Mammalian cell extracts (15 μg protein) or Sf9 lysates (corresponding to 5×10^2 infected cells) containing ˜4 ng recombinant DMP1 are mixed with 3 ng of ^32P-labeled probe (1×10^5 cpm) in 15 ul Binding buffer containing 2.5 μg of poly(dI-dC) and 2.5 μg BSA and incubated at 4° C. for 30 minutes. For competition experiments, the indicated amounts of unlabeled oligonucleotides are added to the reactions before addition of the labeled probe. In some experiments, a bacterially produced GST-Ets2 fusion protein containing the complete Ets2 DNA-binding domain (10) is used in place of Sf9 extracts containing recombinant DMP1. Protein-DNA complexes are separated on nondenaturing 4% polyacrylamide gels as described (8). Where indicated, antiserum to DMP1 together with 2.5 μg salmon testis DNA (Sigma; used to reduce nonspecific DNA binding activity caused by serum addition) is preincubated with extracts for 30 minutes at 4° C. prior to initiation of binding reactions. Immune complexes are either removed by adsorption to protein A-Sepharose beads (immunodepletion experiments) or are allowed to remain (“supershift” experiments).
(§2) Using electrophoretic mobility shift assays (EMSA) performed after mixing a titrated excess (3 ng) of ^32P-end labeled BS1 probe with Sf9 lysates producing DMP1 (˜4 ng recombinant protein per reaction), a BS1-containing protein complex is detected that was competed with an excess of unlabeled BS1 oligonucleotide but not with mutant oligonucleotides M1 and M2 (FIG. 6A). […] More subtle mutations within this region may be tolerated, because high concentrations of M4 competed for BS1 binding to both Ets2 and DMP1 in subsequent studies (FIG. 5B and see below). DMP1 also binds a BS2 probe, and the binding is competed by excess BS2 or BS1 (FIG. 6B). In agreement with the site selection frequencies (FIG. 5A), binding of ^32P-BS1 under equivalent conditions was competed more efficiently by excess unlabeled BS1 than by BS2 (FIG. 6B). […] In agreement, Ets2 binding to BS1 could be competed with excess unlabeled BS1 and M3, but not by BS2 (FIG. 6C). Therefore, although both DMP1 and Ets2 can each bind to BS1 sequences, their exclusive interactions with BS2 and M3, respectively, help to distinguish DMP1 and Ets binding activities (summarized in FIG. 5B).

GST-Ets2 fusion protein = molecular target: T2, GST-Ets2 fusion protein (Homo sapiens, UniProt P15036); experiment: EMSA competition with bacterial GST-Ets2 fusion protein; type: binding; details: excess unlabeled oligonucleotide
T2 construct: made in house; host or cells: bacteria
T2 sequence (P15036 363-443 limits assumed): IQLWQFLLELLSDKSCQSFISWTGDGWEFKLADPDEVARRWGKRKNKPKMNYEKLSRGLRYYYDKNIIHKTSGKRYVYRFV
Procedure: as §1, §2

recombinant DMP1 [2] = molecular target: T1, recombinant DMP1; experiment: EMSA competition, recombinant DMP1 and 281 base pair ARF promoter fragment; type: binding; details: 200-fold excess of unlabelled oligonucleotide
Procedure: Electrophoretic mobility shift assay (EMSA). Recombinant DMP1 protein was prepared in Sf9 cells [Hirai and Sherr, Mol. Cell. Biol. 16:6457-6467 (1996)]. Purified bacterial proteins representing the Ets1 DNA binding domain or full-length Ets1 [Inoue, et al., J. Biol. Chem. 273:29188-29194 (1998)] were used. EMSAs were performed [Inoue and Sherr, Mol. Cell. Biol. 18:1590-1600 (1998)] using either a 281-bp genomic fragment (−225 to +56) or double-stranded oligonucleotides containing the DMP1/Ets site obtained by annealing oligonucleotide 5′-[…]-3′ (sense strand SEQ ID NO:41); DMP1/Ets consensus sequence underlined) with a complementary antisense strand. For competition experiments, a 200-fold excess of unlabelled oligonucleotides was added to reaction mixtures before the probe. To verify the identity of the proteins in shifted complexes, reaction mixtures were incubated with control nonimmune rabbit serum (NRS), serum AF [Hirai and Sherr, Mol. Cell. Biol. 16:6457-6467 (1996)] and M-10 (both to DMP1 carboxylterminal epitopes), S-19 (DMP1 N-terminus), or C-20 (Ets1 C-terminus) before electrophoresis. M-10, S-19, and C-20 were from Santa Cruz Biotechnology.
The nucleotide sequence of the proximal promoter region of the murine ARF gene relative to the transcription initiation site as defined by S1 mapping analysis was determined (FIG. 13). […]

32P-BS2 Probe = experiment: EMSA with 32P-BS2 probe on transfection lysates of NIH-3T3 fibroblasts; type: binding; details: 32P labeled BS2 probe
Procedure: as §1
A series of deletion mutants and a point mutant of DMP1, K319E, (in which the lysine at position 319 of SEQ ID NO:1 is replaced by a glutamic acid) were prepared and used to determine the DNA-binding domain of DMP1 by electrophoretic mobility shift assay (EMSA) using a ^32P labeled BS2 probe. The DNA-binding domain of DMP1 was mapped to a central region containing the three MYB repeats plus adjacent flanking sequences: a BstEII to NcoI fragment encoding amino acids 87-458 of SEQ ID NO:1 (Table 1). This region alone was necessary and sufficient for DNA binding.

[3] = system: DMP1-responsive promoter (pGL2BS2); experiment: Transactivation of luciferase reporter plasmid under control of a DMP1-responsive promoter in NIH-3T3 fibroblasts; type: cell-based, mouse; details: expression vector 3 μg/10 ml, pGL2BS2 8 μg/10 ml; vector without insert set to 1.0
Excerpt: Coexpression of a D-type cyclin with DMP1 overrides the ability of DMP1 to transactivate a luciferase gene under the control of an artificial DMP1-responsive promoter (Table 4), as well as the ability of DMP1 to inhibit cell growth.

NIH-3T3 fibroblasts = experiment: BrdU incorporation in transfected NIH-3T3 fibroblasts; type: cell-based, mouse
Procedure: BrdU is added to NIH-3T3 cells after the experimental treatment and the cells were incubated for twenty-two hours in DMEM plus 10% fetal calf serum (FCS). The cells were then stained for DMP1 expression and/or BrdU incorporation. The nucleic acids encoding the wildtype DMP1 and the deletion and point mutants had been constructed so as to express the corresponding proteins with Flag-tags. To stain for DMP1 expression, mouse monoclonal anti-Flag antibodies (12 μg/ml) [Kodak] were incubated with the cells in TBS-Ca^+ without FCS for one hour at room temperature. After washing the cells, horse anti-mouse biotinylated antibodies at a 1:500 dilution were added to the cells in TBS plus 5% FCS and incubated for 30 minutes at room temperature. After washing the cells, strefptavidin linked to Texas red [Amersham] was then added at a 1:500 dilution for 30 minutes at room temperature. To stain for BrdU incorporation, 1.5N HCl was added to the cells for ten minutes at room temperature to denature the DNA. After washing the cells, sheep anti-BrdU antibodies [Fitzgerald] at a 1:12 dilution were then added for one hour at room temperature. After washing the cells, rabbit FITC-conjugated anti-sheep antibodies [Vector] at 1:100 dilution was then incubated for 30 minutes at room temperature.
NIH-3T3 cells were placed on cover slides and transfected with the expression vectors (pFLEX-DMP1 or the corresponding vector containing the deletion or point mutants of mouse DMP1 plus or minus cyclin D or E) for fourteen hours. The cells were then washed twice and DMEM plus 10% FCS was added and the cells incubated for eight hours. Half of the cells were starved by washing twice with 0.1% FCS, and then incubated for twenty-four hours in 0.1% FCS in DMEM. The remaining cells were not starved but were incubated for twenty-four hours in DMEM plus 10% FCS without washing. BrdU was added to both groups of cells and the cells were incubated for twenty-two hours in DMEM plus 10% FCS.
The cells were then restimulated to enter the cell cycle synchronously with DMEM plus 10% FCS. At the same time, 5′-Bromo-2′ Deoxyuridine (BrdU) was added to the medium. The cells were fixed 22 hours later in methanol acetone (1:1) and stained for BrdU incorporation and DMP1 expression as described in the Materials and Methods.

[4] = system: 281 bp ARF promoter fragment; experiment: Transactivation of ARF promoter-luciferase reporter in NIH-3T3 cells; type: cell-based, mouse; details: NIH-3T3, 281 bp ARF promoter fragment-luciferase
Procedure: Transactivation assays. NIH-3T3 cells were transfected with 4 μg of pGL2-ARFpro BamHI or its DMP1 binding site mutant, with or without increasing amount of pFLEX-DMP1, pEVRFO-Ets1, pCMV-Ets2, pRcRSV-Elfl, pdEB-Fli1, p(IEB-EWS-Fli1 or pCMV-E2F-1 (89-437), and 4 μg β-actin SEAP control vectors [Inoue and Sherr, Mol. Cell. Biol. 18: 1590-1600 (1998); Inoue et al., J. Biol. Chem. 273:29188-29194 (1998); Davis and Roussel, Gene 171:265-269 (1996); Baily et al., Mol. Cell. Biol. 14:3230-3241 (1994)]. Transfections and normalization of luciferase levels with internal control SEAP levels were performed as described [Inoue and Sherr, Mol. Cell. Biol. 18:1590-1600 (1998)].
Similarly, DMP1 deletion mutants defective in transactivation [Inoue and Sherr, Mol. Cell. […] Mutation of the DMP1 binding site within the ARF promoter [changing CCCGGATGC, (SEQ ID NO:33) to CCCGTCGAC, (SEQ ID NO:42)] also completely abolished transactivation by wild-type DMP1 (FIG. 14C, mutant reporter). Therefore, sequences within the −189 to −181 ARF promoter segment were the only ones responsible for DMP1-mediated transactivation. Although Ets1 could bind to a 23 base pair oligonucleotide containing the DMP1 consensus site (FIG. 14B), several Ets proteins were unable to induce significant reporter gene expression from the more complex 281 base pair ARF promoter (FIG. 14C). […]

Q: Which results are given for “oligonucleotide BS2: probe/competitor BS2, SEQ ID NO:11, DMP1 binding site CCCGTATGT with GTA core (DNA AATTGACCCGTATGTAGGTACGC; chemistry not given here)”?
A: competition for 32P-BS1 probe binding to DMP1 (recombinant DMP1 [1]): competed; competition for BS2 probe binding to DMP1 (recombinant DMP1 [1]): competed; competition for BS1 binding to Ets2 (GST-Ets2 fusion protein): not; competition for DMP1 binding to the 281 base pair ARF promoter fragment (recombinant DMP1 [2]): completely inhibited

Q: How did the “affinity for the DNA probe relative to wildtype” value (32P-BS2 Probe) turn out when “M11: DMP1 point mutant, lysine at position 319 of SEQ ID NO:1 replaced by glutamic acid” was run?
A: The value was “about 2%”.

Q: What about the “Luciferase Activity” value [3] of the same substance?
A: The value was 1.1.

Q: What about the “% Cells BrdU Positive” value (NIH-3T3 fibroblasts; Table 2, expression vector 3 μg/10 ml) of the same substance?
A: The value was 48%.

Q: What about the “% Cells BrdU Positive in 10% FCS” value (NIH-3T3 fibroblasts; nonstarved cells, additive None, labeled 22 hours) of the same substance?
A: Its value is 54%.

Q: And the “% Cells BrdU Positive in 0.1% FCS” value (NIH-3T3 fibroblasts; starved cells, additive None, labeled 22 hours)?
A: The value was 47%.

Q: What about the “ARF promoter reporter gene expression” value [4] of the same substance?
A: The value was “had no activity”.

Reference: patent publication US6673902B2, “Cyclin D binding factor, and uses thereof” (St. Jude Children's Research Hospital, priority 1996, dated 2004)
